Patent US20130184320A1, “Imine Compounds” (BASF SE, priority 2010, published 2013)

Assays:
Format in all cases: in vivo
bemisia argentifolii = experiment: B.8 Silverleaf whitefly spray test on cotton plants; conditions: 300 ppm; silverleaf whitefly adults on sprayed cotton; 3 days
Source text: B.8 Silverleaf Whitefly (bemisia argentifolii)
The active compounds were formulated in cyclohexanone as a 10,000 ppm solution supplied in tubes. The tubes were inserted into an automated electrostatic sprayer equipped with an atomizing nozzle and they served as stock solutions for which lower dilutions were made in 50% acetone:50% water (v/v). A nonionic surfactant (Kinetic®) was included in the solution at a volume of 0.01% (v/v).
Cotton plants at the cotyledon stage (one plant per pot) were sprayed by an automated electrostatic plant sprayer equipped with an atomizing spray nozzle. The plants were dried in the sprayer fume hood and then removed from the sprayer. Each pot was placed into a plastic cup and about 10 to 12 whitefly adults (approximately 3-5 days old) were introduced. The insects were collected using an aspirator and a nontoxic Tygon® tubing connected to a barrier pipette tip. The tip, containing the collected insects, was then gently inserted into the soil containing the treated plant, allowing insects to crawl out of the tip to reach the foliage for feeding. Cups were covered with a reusable screened lid. […] Mortality was assessed 3 days after treatment, compared to untreated control plants.

Myzus persicae = experiment: B.4 Green peach aphid systemic test, artificial diet in 96-well plates; conditions: 72 h, 3 days, read-out: mortality in comparison with untreated controls
Source text: B.4 Green Peach Aphid (Myzus persicae)
For evaluating control of green peach aphid (Myzus persicae) through systemic means the test unit consisted of 96-well-microtiter plates containing liquid artificial diet under an artificial membrane.
The compounds were formulated using a solution containing 75% v/v water and 25% v/v DMSO. Different concentrations of formulated compounds were pipetted into the aphid diet, using a custom built pipetter, at two replications.
After application, 5-8 adult aphids were placed on the artificial membrane inside the microtiter plate wells. The aphids were then allowed to suck on the treated aphid diet and incubated at about 23±1° C. and about 50±5% relative humidity for 3 days. Aphid mortality and fecundity was then visually assessed.

Anthonomus grandis = experiment: B.12 Boll weevil microtiter plate diet test; conditions: 120 h, boll weevil eggs and larvae on diet, 5 days, read-out: mortality in comparison with untreated controls
Description: B.12 Boll Weevil (Anthonomus grandis)
For evaluating control of boll weevil (Anthonomus grandis) the test unit consisted of 24-well-microtiter plates containing an insect diet and 20-30 A. grandis eggs.
The compounds were formulated using a solution containing 75% v/v water and 25% v/v DMSO. Different concentrations of formulated compounds were sprayed onto the insect diet at 20 μl, using a custom built micro atomizer, at two replications.
After application, microtiter plates were incubated at about 23±1° C. and about 50±5% relative humidity for 5 days. Egg and larval mortality was then visually assessed.

Heliothis virescens = experiment: B.11 Tobacco budworm I microtiter plate diet test; conditions: 120 h, tobacco budworm eggs and larvae on diet, 5 days, read-out: mortality in comparison with untreated controls
Description: B.11 Tobacco Budworm (Heliothis virescens) I
For evaluating control of tobacco budworm (Heliothis virescens) the test unit consisted of 96-well-microtiter plates containing an insect diet and 15-25 H. virescens eggs.
The compounds were formulated using a solution containing 75% v/v water and 25% v/v DMSO. Different concentrations of formulated compounds were sprayed onto the insect diet at 10 μl, using a custom built micro atomizer, at two replications.
(§1) After application, microtiter plates were incubated at about 28±1° C. and about 80±5% relative humidity for 5 days. Egg and larval mortality was then visually assessed.

Plutella xylostella = experiment: B.3 Diamond back moth leaf dip test on Chinese cabbage; conditions: foliar, recorded 24, 72 and 120 hours after treatment, read-out: mortality in comparison with untreated controls
Description: B.3 Diamond Back Moth (Plutella xylostella)
Leaves of Chinese cabbage were dipped in test solution and air-dried. Treated leaves were placed in petri dished lined with moist filter paper. Mortality was recorded 24, 72, and 120 hours after treatment.

Aphis craccivora = experiment: B.2 Cowpea aphid spray test on potted cowpea plants; conditions: sprayed plants, assessed after 24, 72 and 120 hours, read-out: mortality in comparison with untreated controls
Description: B.2 Cowpea Aphid (Aphis craccivora)
Potted cowpea plants colonized with approximately 100-150 aphids of various stages were sprayed after the pest population had been recorded. Population reduction was assessed after 24, 72, and 120 hours.

Dichromothrips corbetti = experiment: B.6 Orchid thrips floral-immersion test; conditions: 96 h, orchid thrips adults, 4 days, read-out: mortality in comparison with untreated controls
Description: B.6 Orchid Thrips (dichromothrips corbetti)
Dichromothrips corbetti adults used for bioassay were obtained from a colony maintained continuously under laboratory conditions. For testing purposes, the test compound was diluted to a concentration of 500 ppm (wt compound: vol diluent) in a 1:1 mixture of acetone:water (vol:vol), plus 0.01% vol/vol Kinetic® surfactant.
Thrips potency of each compound was evaluated by using a floral-immersion technique. Plastic petri dishes were used as test arenas. All petals of individual, intact orchid flowers were dipped into treatment solution and allowed to dry. Treated flowers were placed into individual petri dishes along with 10-15 adult thrips. The petri dishes were then covered with lids. All test arenas were held under continuous light and a temperature of about 28° C. for duration of the assay. After 4 days, the numbers of live thrips were counted on each flower, and along inner walls of each petri dish. The level of thrips mortality was extrapolated from pre-treatment thrips numbers.

Ceratitis capitata = experiment: B.5 Mediterranean fruitfly microtiter plate diet test; conditions: 120 h, Mediterranean fruitfly eggs and larvae on diet, 5 days, read-out: mortality in comparison with untreated controls
Description: B.5 Mediterranean Fruitfly (Ceratitis capitata)
For evaluating control of Mediterranean fruitfly (Ceratitis capitata) the test unit consisted of microtiter plates containing an insect diet and 50-80 C. capitata eggs.
The compounds were formulated using a solution containing 75% v/v water and 25% v/v DMSO. Different concentrations of formulated compounds were sprayed onto the insect diet at 5 μl, using a custom built micro atomizer, at two replications.
as §1

SMILES	mortality in comparison with untreated controls (bemisia argentifolii)	mortality at 2500 ppm (Myzus persicae)	mortality at 2500 ppm (Anthonomus grandis)	mortality at 2500 ppm (Heliothis virescens)	mortality at 500 ppm (Plutella xylostella)	mortality at 500 ppm (Aphis craccivora)	mortality at 500 ppm (Dichromothrips corbetti)	mortality at 2500 ppm (Ceratitis capitata)
CNC(=O)NN=Cc1ccc(N2CCC(c3cc(Cl)cc(Cl)c3)(C(F)(F)F)C2)cc1Cl (centres unmarked) [Compound 2-4]	at least 75%							
O=C(NCC(F)(F)F)N/N=C/c1ccc(N2CC(c3cc(Cl)cc(Cl)c3)(C(F)(F)F)OC2=O)cc1Cl (centres unmarked) [Compound 3-1, 1-[(E)-[2-chloro-4-[5-(3,5-dichlorophenyl)-2-oxo-5-(trifluoromethyl)oxazolidin-3-yl]phenyl]methyleneamino]-3-(2,2,2-trifluoroethyl)urea]		≥ 75%	≥ 75%	≥ 75%	≥ 75%	≥ 75%	≥ 75%	≥ 75%
